# Assay results published in US11293019B2, “Chimeric genome engineering molecules and methods” (GFLAS Life Sciences, Inc., priority 2017, dated 2022).
# Where two headings read alike, the source gives them in different places.
# Key:
# [1] = tested on: PCR dsDNA product; experiment: SpCas9 activity with 1 mM ZnSO4 / Mg2+ deficiency at different pH; format: biochemical; conditions: 1 mM ZnSO4, range of pH values
# Protocol: For DNA (50 ng) NbFTa13_4 PCR product, 3 μl (150 ng) was used; for SpCas9-BPNLS (3.3 μg) 1/10 dilution (333 ng), 1.5 μl (0.5 μg) was used; for gRNA (1.5 μg) (NbFTa13_3/4-2), 1/10 dilution (150 ng), 3.5 μg (500 ng) was used; for pH (+1 mM ZnSO4, 2× cutsmart), 10 μl was used; for DW, to 20 μl was used.
# For PCR dsDNA product, 150 ng was used; for SpCas9:BPNLS, 1 μg was used; for gRNA, 500 ng was used; for pH titration (100 mM NaCal, 50 mM Tris-HCl+1 mM ZnSO4), 10 ul was used, for DW, up to 20 μl was used.
# Activity of SpCas9 and SpCas9-mungbean nuclease chimeric polypeptide was tested in the presence of 1 mM ZnSO4 at a range of pHs.
# [2] = tested on: PCR product (901 bp SpyCas9; 1,431 bp FnCpf1); experiment: Inactivation of SpyCas9 and FnCpf1 by stop solution / 1 mM ZnSO4, in vitro cleavage time course; format: biochemical
# [3] = tested on: human DHCR7; experiment: Genome editing after zinc sulfate treatment, HEK293, T7E1 assay; format: cell-based; conditions: for % indels: +RNP
# Protocol: (§1) The concentrations of 80 mM 160 mM of zinc sulfate were treated in HEK293 with Cas9 variants. HEK293 cells were harvested at 12 h, 24 h, and 48 h after zinc sulfate treatment. In terms of RNP treatment, HEK293 cells were harvested at 24 h, 36 h, and 60 h.
# as §1
# Cell culture. HEK 293 cells were maintained in DMEM media with 10% Fetal bovine serum FBS and P/S, at 37° C. in CO2 incubator. 150,000 cells were transferred to a 24 well plate in […] of the growth medium a day before transfection.
# Transfection. For Cas9 variants transfection to the cells, purified each Cas9 variant protein was added to up to […] of Opti-MEM serum reduced medium in a micro tube, followed by addition of 120 ng guide RNA. The molar ratio of the guide RNA to Cas9 protein was kept nearly at 1.2:1 ratio(1). The mixture, then, mixed well by gentle tapping and incubated for 10 min at RT. In a separate tube. […] of Lipofectamin 3000 transfection reagent was added to […] of Opti-MEM and […] of the diluted transfection reagent was added to the guide RNA and Cas9 protein mixture, followed by incubation for 15 min at RT and […] mixture was added to the cells.
# Genomic DNA extraction. […] Briefly cells were washed with PBS once and treated with T.E., followed by incubation at 37, for 5 min. 1.2 ml of growth media were added to cells to harvest cell and then, spin downed at RT, 250×g, for 5 min.
# Amplification of genomic loci of human DHCR7. For amplification of genomic loci of human DHCR7, two different PCR primer pairs were used. […] Genomic DNA was amplified using specific primers and cleaned up using Wizard® SV gel and PCR clean-Up system. 200 ng PCR cleaned-up amplified DNA was added in a PCR-tube, followed by addition of […] of NEB buffer 2 with up to 9 ml of distilled water (D/W). The mixture was then re-annealed in a PCR machine using following condition: 98° C. for 5 min for denaturation; cooling down to 85° C. at −2° C./sec, in turn, to 25° C. at −0.1/sec and kept at 4° C., in order to prevent denaturation of heteroduplex formation of the amplified DNA. […] of T7E1 endonuclease was added to the mixture and incubated at 37° C. for 60 min.
# Image Analysis. For analysis of gene modification, 2% gel was used image was obtained with and Alphaimager 2200 image analysis software was used for analysis. % indel was computed with following equation: 1−((1-fraction cleaved) ½)(2).
# [4] = tested on: HEK293 cells and plant protoplasts; experiment: Summary of knock-out / knock-in performance (HEK293 cells and plant protoplasts); format: cell-based; conditions: in vitro and in vivo HEK293 cells
# Source text: The apparent rates of mutations after the action of CRISPR genome editing tools are relatively low in vivo due to outperformance of error-free repair mechanisms. To enhance both the rate of indel mutation and HR recombination, genome editing tools were constructed by translational fusion of DNA modifying enzymes (DME), DNA binding protein (DBP), or terminal deoxyribonucleotidyl transferase (TdT) at either upstream or downstream of CRISPR genome editing enzymes. In one embodiment, a variant irreversibly deleted the DNA at the CRISPR enzyme-dependent double strand break sites in 5′->3′ direction, and the resulting modified ends with 3′-OH overhang can better serve HR repairs in presence of repair template. Disclosed herein are constructs that display functional enhancement of the CRISPR-Cas enzymes. […] Fifth, off-target effects in Cas9-RecJ embodied the similar efficiency to Cas9 off-targeting in whole genome sequencing and targeted deep sequencing. […] FIG. 74-FIG. 125 show said new genome editing fusion constructs, knock-out and knock-in efficiency and percent change in efficiency over a control.
# The apparent rates of mutations after the action of CRISPR genome editing tools are relatively low in vivo due to outperformance of error-free repair mechanisms. […]
# [5] = tested on: HEK293 cells
# Protocol: 1.0×10^5 cells were in the 24 well plate.
# Cell culture. HEK 293 cells were maintained in DMEM media with 10% Fetal bovine serum FBS and P/S, at 37° C. in CO2 incubator. 150,000 cells were transferred to a 24 well plate in 50 ml of the growth medium a day before transfection.
structure (smiles),measurement,setting,value
"O=S(=O)([O-])[O-].[Zn+2] [ZnSO4, zinc sulfate]",abolished Cas9 activity,[1],up to 90%
same,uncut dsDNAs not digested any more after ZnSO4 treatment,[2],65%
same,% indels,"[3]; 80 ZnSO4 (mM) at 12 h, harvest 24 h",2.9%
same,% indels,"[3]; 80 ZnSO4 (mM) at 12 h, harvest 60 h",5.4%
same,% indels,"[3]; 160 ZnSO4 (mM) at 12 h, harvest 24 h",1.8%
same,% indels,"[3]; 160 ZnSO4 (mM) at 12 h, harvest 36 h",2.7%
same,% indels,"[3]; 160 ZnSO4 (mM) at 12 h, harvest 60 h",5.8%
same,modified dsDNA detected via T7E1 assay,"[3]; 48 h hpt with RNP, 80 μM ZnSO4 at 24 hpt, direct",12.62%
same,modified dsDNA detected via T7E1 assay,"[3]; 48 h hpt with RNP, 80 μM ZnSO4 at 24 hpt, media exchange",9.86%
same,modified dsDNA detected via T7E1 assay,"[3]; 48 h hpt with RNP, 160 μM ZnSO4 at 24 hpt, direct",3.68%
same,modified dsDNA detected via T7E1 assay,"[3]; 48 h hpt with RNP, 160 μM ZnSO4 at 24 hpt, media exchange",4.96%
same,modified dsDNA detected via T7E1 assay,"[3]; 72 h hpt with RNP, 80 μM ZnSO4 at 24 hpt, direct",2.8%
same,modified dsDNA detected via T7E1 assay,"[3]; 72 h hpt with RNP, 80 μM ZnSO4 at 24 hpt, media exchange",9.32%
same,modified dsDNA detected via T7E1 assay,"[3]; 72 h hpt with RNP, 160 μM ZnSO4 at 24 hpt, direct",1.87%
same,modified dsDNA detected via T7E1 assay,"[3]; 72 h hpt with RNP, 160 μM ZnSO4 at 24 hpt, media exchange",1.41%
same,genome editing efficacy after zinc sulfate treatment,[3]; HEK293 with Cas9 variants,reduced
same,quenching of Cas9 activity,[4],effectively quenched Cas9 activity
same,HEK293 cell survival,[5]; 0 to 120 mM zinc sulfate,allowed HEK293 cell to survive
same,HEK293 cell survival,[5]; 160 mM and 200 mM zinc sulfate,did not allow HEK293 live well without toxicity effect
